The text below walks through data of publication PMC8041284, “Tunable Methacrylamides for Covalent Ligand Directed Release Chemistry” (Journal of the American Chemical Society, 2021).

The target of this assay is BTK (Homo sapiens, UniProt Q06187). Nature of the assay: biochemical.
Where [1] appears, read: read-out: BTK inhibition (%), 0.75 uM BTK, […] probe 3l, 15 min preincubation.

Where two headings read alike, the source gives them in different places.

Chain of BTK (Q06187 402-655 limits assumed): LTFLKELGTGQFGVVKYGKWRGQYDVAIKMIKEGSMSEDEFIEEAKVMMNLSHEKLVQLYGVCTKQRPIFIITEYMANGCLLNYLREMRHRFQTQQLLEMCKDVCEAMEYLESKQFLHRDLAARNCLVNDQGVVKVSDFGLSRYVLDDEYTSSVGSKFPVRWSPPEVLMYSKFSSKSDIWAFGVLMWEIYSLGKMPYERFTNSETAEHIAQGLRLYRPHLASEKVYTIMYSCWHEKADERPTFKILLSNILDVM

As to `Nc1nc2c(ncn2[C@@H]2O[C@H](CO)[C@@H](O)[C@H]2O)c(=O)[nH]1` [PCM-0094848], the inhibition at 10 µM under setting [1] came out at 0%. Consider `O=C1C=CC[C@@H]2[C@H]3CCCN4CCC[C@@H](CN12)[C@@H]34` [PCM-0094851], for which, under setting [1], the inhibition at 10 µM is 13.2%. Consider `C=CCc1ccc(O)c(-c2ccc(O)c(CC=C)c2)c1` [PCM-0094855], for which the inhibition at 10 µM under setting [1] was found to be 37.9%. In the case of `COc1ccc(-c2oc3c(CC=C(C)C)c(O[C@@H]4O[C@H](CO)[C@@H](O)[C@H](O)[C@H]4O)cc(O)c3c(=O)c2O[C@@H]2O[C@@H](C)[C@H](O)[C@@H](O)[C@H]2O)cc1` [PCM-0094858], the inhibition at 10 µM under setting [1] was -0.8%.

Consider `COc1ccc(-c2cc(=O)c3c(O)cc(O)cc3o2)cc1O` [PCM-0094859], for which the inhibition at 10 µM under setting [1] turned out to be 57.6%. Same read-out and setting: then `Oc1cc2c(cc1O)[C@@H]1c3ccc(O)c(O)c3OC[C@]1(O)C2` [PCM-0094861], with -15.6%; and `COc1cc2c(cc1OC)[C@@H]1Cc3ccc(OC)c(OC)c3CN1CC2` [PCM-0094863], with 3.9%; and `O=c1[nH]cnc2c1ncn2[C@@H]1O[C@H](CO)[C@@H](O)[C@H]1O` [PCM-0094864], with -3.1%.

For `C=CCc1ccc(O)c(-c2cc(CC=C)ccc2O)c1` [PCM-0094865], under setting [1], the inhibition at 10 µM turned out to be 16.3%. On to `O=C1CCC[C@@H]2[C@H]3CCCN4CCC[C@@H](CN12)[C@@H]34` [PCM-0094866], for which the inhibition at 10 µM under setting [1] is 11.7%.

Take `COc1cc(C=O)ccc1O` [PCM-0094868]: under setting [1], the inhibition at 10 µM turned out to be 21.8%.

Take `COc1ccc(CCC(=O)c2c(O)cc(O[C@@H]3O[C@H](CO)[C@@H](O)[C@H](O)[C@H]3O[C@@H]3O[C@@H](C)[C@H](O)[C@@H](O)[C@H]3O)cc2O)cc1O` [PCM-0094869]: the inhibition at 10 µM under setting [1] amounted to 9.3%.

`CCC1(O)C(=O)OCc2c1cc1n(c2=O)Cc2cc3cc(O)ccc3nc2-1` (stereo not drawn) [PCM-0094873]: the inhibition at 10 µM (read-out: BTK inhibition (%)) worked out at 6.2%.

For `O=C1CCC[C@@H]2[C@H]3CCC[N@+]4([O-])CCC[C@@H](CN12)[C@@H]34` [PCM-0094874], the inhibition at 10 µM under setting [1] is -8.6%. Same read-out and setting: then `OC[C@@H](O)[C@@H](O)[C@H](O)[C@H](O)CO` [PCM-0094876], with -17.1%; and `O=c1c(-c2ccc(O)cc2)coc2c([C@@H]3O[C@H](CO)[C@@H](O)[C@H](O)[C@H]3O)c(O)ccc12` [PCM-0094877], with -0.8%; and `N=c1ccn2c(n1)O[C@H]1[C@H](O)[C@@H](CO)O[C@H]12` [PCM-0094879], with 6.2%. `COc1cc2c(Nc3ccc(NC(=O)c4ccccc4)cc3)ncnc2cc1OCCCN1CCOCC1` [PCM-0094881]: the inhibition at 10 µM under setting [1] was found to be 77.9%. For the compound `OCCn1cc(-c2ccc3c(c2)CC/C3=N\O)c(-c2ccncc2)n1` [PCM-0094883], the inhibition at 10 µM under setting [1] turned out to be 16.6%. Regarding `C[C@]1(c2nc3c(C(N)=O)cccc3[nH]2)CCCN1` [PCM-0094885], under setting [1], the inhibition at 10 µM is -6.2%.

As for `NCC(=O)Nc1ccc(-n2nc(C(F)(F)F)cc2-c2ccc3c(ccc4ccccc43)c2)cc1` [PCM-0094886], the inhibition at 10 µM under setting [1] was 70.3%. Consider `CO[C@@H](C(=O)N1Cc2[nH]nc(NC(=O)c3ccc(N4CCN(C)CC4)cc3)c2C1)c1ccccc1` [PCM-0094888], for which, under setting [1], the inhibition at 10 µM turned out to be 85.5%. On the same count and under the same terms, then `CN1CCN(CCOc2cc(OC3CCOCC3)c3c(Nc4c(Cl)ccc5c4OCO5)ncnc3c2)CC1` [PCM-0094889], with 59.3%; and `COc1cc(N2CCC(N3CCN(C)CC3)CC2)ccc1Nc1ncc(Cl)c(Nc2ccccc2S(=O)(=O)C(C)C)n1` [PCM-0094890], with 88.5%; and `Cc1nc(C(=O)NCC(=O)O)c(O)c2ccc(Oc3ccccc3)cc12` [PCM-0094891], with -5.4%.

For the compound `Cn1cnc2c(F)c(Nc3ccc(Br)cc3Cl)c(C(=O)NOCCO)cc21` [PCM-0094893], the inhibition at 10 µM under setting [1] is -6.9%.

Take `CCc1c(C(=O)C(N)=O)c2c(OCC(=O)O)cccc2n1Cc1ccccc1` [PCM-0094894]: the inhibition at 10 µM under setting [1] is -16.3%. Take `COC(=O)c1ccc2c(C(=Nc3ccc(N(C)C(=O)CN4CCN(C)CC4)cc3)c3ccccc3)c(O)[nH]c2c1` [PCM-0094897]: under setting [1], the inhibition at 10 µM was determined as 22.1%. In the case of `Cn1cc(-c2ccc3nnc(Sc4ccc5ncccc5c4)n3n2)cn1` [PCM-0094898], the inhibition at 10 µM under setting [1] was -3.4%. For the compound `O=c1[nH]c(=O)n(C2CCCO2)cc1F` (stereo not drawn) [PCM-0094899], the inhibition at 10 µM under setting [1] is -3.1%. As for `Nc1ncn([C@H]2C[C@H](O)[C@@H](CO)O2)c(=O)n1` [PCM-0094900], the inhibition at 10 µM under setting [1] was determined as 11%. As for `NCCC(O)(P(=O)(O)O)P(=O)(O)O` [PCM-0094901], the inhibition at 10 µM under setting [1] was -6.8%.

Take `Cc1ccc([N+](=O)[O-])cc1S(=O)(=O)N(C)/N=C/c1cnc2ccc(Br)cn12` [PCM-0094904]: the inhibition at 10 µM under setting [1] was determined as 13.6%. Same read-out and setting: with `Cc1noc(-c2ccc(CSCCC(=O)O)cc2)c1NC(=O)OC(C)c1ccccc1Cl` (stereo not drawn) [PCM-0094905] the figure was -21%; with `CN(C)C/C=C/C(=O)Nc1cc2c(Nc3ccc(F)c(Cl)c3)ncnc2cc1O[C@H]1CCOC1` [PCM-0094907], 84.8%. For `CCn1c(-c2nonc2N)nc2c(C#CC(C)(C)O)ncc(OC[C@H]3CCCNC3)c21` [PCM-0094908], the inhibition at 10 µM under setting [1] was -4.1%.

As for `CC(C)C[C@H](NC(=O)[C@H](Cc1ccccc1)NC(=O)c1cnccn1)B(O)O` [PCM-0094909], the inhibition at 10 µM under setting [1] came out at 8.6%. For `Cn1cc(-c2ccc3nnc(C(F)(F)c4ccc5ncccc5c4)n3n2)cn1` [PCM-0094910], under setting [1], the inhibition at 10 µM was -1.4%.

With `CC(C)(F)C[C@H](N[C@@H](c1ccc(-c2ccc(S(C)(=O)=O)cc2)cc1)C(F)(F)F)C(=O)NC1(C#N)CC1` [PCM-0094912], the inhibition at 10 µM under setting [1] was -23.3%. In the case of `COc1cc2c(Oc3ccc4[nH]c(C)cc4c3F)ncnc2cc1OCCCN1CCCC1` [PCM-0094913], the inhibition at 10 µM under setting [1] was found to be 33.8%. For `C=CC(=O)Nc1cc2c(Nc3ccc(F)c(Cl)c3)ncnc2cc1OCCCN1CCOCC1` [PCM-0094917], the inhibition at 10 µM under setting [1] was found to be 93.6%.

Take `Cc1ccc(S(=O)(=O)Nc2nc3ccccc3nc2Nc2ccc3nsnc3c2)cc1` [PCM-0094918]: the inhibition at 10 µM under setting [1] is -1.7%. On the same count and under the same terms, with `O=C(NOCC1CC1)c1ccc(F)c(F)c1Nc1ccc(I)cc1Cl` [PCM-0094919] the figure was 5.5%. Regarding `CC(C)c1ccccc1Cc1cc(C(=O)Nc2ccc(S(=O)(=O)c3ccccc3C(C)(C)C)cc2)c(O)c(O)c1O` [PCM-0094924], the inhibition at 10 µM under setting [1] was 54.5%.

For the compound `Nc1ccccc1NC(=O)c1ccc(CNc2nccc(-c3cccnc3)n2)cc1` [PCM-0094926], the inhibition at 10 µM under setting [1] turned out to be 2.8%. Turning to `COc1cc2nccc(Oc3ccc(NC(=O)Nc4cc(C)on4)c(Cl)c3)c2cc1OC` [PCM-0094927], under setting [1], the inhibition at 10 µM was 84.1%. In the case of `CCc1cccc2c3c([nH]c12)C(CC)(CC(=O)O)OCC3` (stereo not drawn) [PCM-0094929], under setting [1], the inhibition at 10 µM came to 1.4%.

Take `COc1nc(N)nc2c1ncn2[C@@H]1O[C@H](CO)[C@@H](O)[C@@H]1O` [PCM-0094930]: the inhibition at 10 µM under setting [1] is -3.1%. Same read-out and setting: then `COc1ccccc1S(=O)(=O)Nc1ccc2c(c1)CN(C)C(=O)N2` [PCM-0094933], with 6.2%; and `O=C(Nc1ccccc1-c1cn2c(CN3CCNCC3)csc2n1)c1cnc2ccccc2n1` [PCM-0094935], with 10.3%. Regarding `COCCn1c2c([n+](Cc3cnccn3)c1C)C(=O)c1ccccc1C2=O` [PCM-0094937], under setting [1], the inhibition at 10 µM is -17.9%.

Usually inhibition stands for the relative decrease from the control value, in per cent.
